From the NIST ThermoML archive (doi:10.1021/je800925v)

Experiment: xn = mol fraction of the nth substance listed
Conditions: Liquid

CCCCCCCCCC [decane] + CCO
Conditions	mass density [kg/m3]	viscosity [mPa·s]
285.65 K, x2 = 0.602	–	1.158
285.65 K, x2 = 0.694	757.3	1.183
285.65 K, x2 = 0.799	764.7	1.22
285.65 K, x2 = 0.905	777.4	1.278
288.15 K, x2 = 0.098	735	0.9574
288.15 K, x2 = 0.198	736.7	0.9702
288.15 K, x2 = 0.301	739	0.9738
288.15 K, x2 = 0.397	742	1.003
288.15 K, x2 = 0.501	745.5	1.056
288.15 K, x2 = 0.602	750.6	1.104
288.15 K, x2 = 0.694	755.2	1.128
288.15 K, x2 = 0.799	762.7	1.163
288.15 K, x2 = 0.905	775.3	1.218
290.65 K, x2 = 0.098	733.1	0.9207
290.65 K, x2 = 0.198	734.8	0.9321
290.65 K, x2 = 0.301	737	0.9348
290.65 K, x2 = 0.397	740	0.9608
290.65 K, x2 = 0.501	743.5	1.009
290.65 K, x2 = 0.602	748.6	1.053
290.65 K, x2 = 0.694	753.1	1.076
290.65 K, x2 = 0.799	760.6	1.11
290.65 K, x2 = 0.905	773.3	1.162
293.15 K, x2 = 0	731	0.9133
293.15 K, x2 = 0.098	731.2	0.8862
293.15 K, x2 = 0.198	732.8	0.8973
293.15 K, x2 = 0.301	735.1	0.8982
293.15 K, x2 = 0.397	738	0.9215
293.15 K, x2 = 0.501	741.5	0.966
293.15 K, x2 = 0.602	746.6	1.006
293.15 K, x2 = 0.694	751.1	1.028
293.15 K, x2 = 0.799	758.5	1.061
293.15 K, x2 = 0.905	771.2	1.109
295.65 K, x2 = 0.098	729.4	0.8534
295.65 K, x2 = 0.198	730.9	0.8635
295.65 K, x2 = 0.301	733.1	0.8638
295.65 K, x2 = 0.397	736	0.8848
295.65 K, x2 = 0.501	739.5	0.9255
295.65 K, x2 = 0.602	744.5	0.962
295.65 K, x2 = 0.694	749	0.983
295.65 K, x2 = 0.799	756.5	1.014
295.65 K, x2 = 0.905	769.1	1.06
298.15 K, x2 = 0	727.2	0.8509
298.15 K, x2 = 0.098	727.3	0.823
298.15 K, x2 = 0.198	728.9	0.8318
298.15 K, x2 = 0.301	731.1	0.8314
298.15 K, x2 = 0.397	734	0.8501
298.15 K, x2 = 0.501	737.5	0.8872
298.15 K, x2 = 0.602	742.5	0.9216
298.15 K, x2 = 0.694	747	0.9407
298.15 K, x2 = 0.799	754.4	0.9698
298.15 K, x2 = 0.905	766.9	1.013
